≈ marks a conversion by molar mass, not a printed value. Like-named read-outs stand apart in the source and are kept apart here.
Tests used:
Type in all cases: physicochemical
[1] = Solid stability of anhydrous crystal Form A on storage (XRPD form, TGA, HPLC purity); conditions: for HPLC Purity (area %): solid
Procedure: (§1) Purity analysis was performed on an Agilent HP1100 series system equipped with a diode array detector and using ChemStation software vB.04.03 using the method detailed below in Table 3.
Thermogravimetric analysis (TGA) data were collected using a TA Q500/Q5000 TGA from TA Instruments. Differential scanning calorimetry (DSC) was performed using a TA Q200/Q2000 DSC from TA Instruments.
About 40 mg of a sample of formula (I) Form A was kept at each corresponding condition for one month without significant changes. […] No significant effect of the shoulder peaks on form or HPLC purity was observed.
Samples of formula (I) anhydrous crystalline Form A were stored as solids at 25° C./60% RH, 30° C./˜56%, and 40° C./75% RH for the time periods listed below. The samples were prepared in duplicate with an offset of 2 weeks. Each replicate was stored in a different container.

[2] = Solution stability of Form A in water/organic solvent mixtures (HPLC purity); conditions: for HPLC purity, API (RRT 1.00): about 10 mg/mL; for chemical purity in solution: time 0, across water/organic solvent mixtures
Procedure: as §1
Samples of formula (I) anhydrous crystalline Form A were stored as solutions in water mixed with acetonitrile, tetrahydrofuran, isopropyl alcohol, or ethanol at room temperature and 35° C. for 7-8 days. The sample concentration was about 10 mg/mL and was kept stirring.

[3] = Solubility in simulated gastric fluid and pH-adjusted water at room temperature; conditions: thermodynamic from solid
Text: The pH values of the aqueous solutions after the solubility test were 5.13 and 5.15, respectively.

[4] = Equilibrium solubility in water; conditions: for Final Form / solubility at 6 h: Water; for Final Form: solids checked by XRPD; for solubility at 6 h: thermodynamic from solid, equilibrated 6 hrs, HPLC
Procedure: Equilibrium solubility of formula (I) anhydrous Form A was measured in the water at 20° C. and 30° C. All samples were equilibrated at temperature for 6 hrs, and the solubility of supernatant was measured by HPLC, while the solids were checked by XRPD. (See Table 10.)

[5] = Dynamic vapor sorption (DVS)
[6] = Seed (after ground), 5° C., sealed

With `CC(O)[C@H](NC(=O)N[C@@H](CC(N)=O)c1nc([C@@H](N)CO)no1)C(=O)O` (stereo in doubt) [Form A] the “Final Form” value ([1]; 25° C., 60% RH, 1 month) was “Form A”, the “TGA (%)” value ([1]; 25° C., 60% RH, 1 month) was 0.60% and the “Final Form” value ([1]; 25° C., 60% RH, 3 months) was “Form A”. The “TGA (%)” value ([1]; 25° C., 60% RH, 3 months) was 2.8%, the “Final Form” value ([1]; 40° C., 75% RH, 1 month) was “Form A” and the “TGA (%)” value ([1]; 40° C., 75% RH, 1 month) was 1.0%. The “Final Form” value ([1]; 40° C., 75% RH, 3 months) was “Form A”, the “TGA (%)” value ([1]; 40° C., 75% RH, 3 months) was 1.9% and the “Final Form” value ([1]; 60° C., sealed, 1 month) was “Form A”. The “TGA (%)” value ([1]; 60° C., sealed, 1 month) was 0.6%, the “Final Form” value ([1]; 60° C., sealed, 3 months) was “Form A” and the “TGA (%)” value ([1]; 60° C., sealed, 3 months) was 2.1%. The “Final Form” value ([1]; Initial) was “Form A”, the “TGA (%)” value ([1]; Initial) was 0.40% and the “Final Form” value [1, 6] was “Form A”. The “TGA (%)” value [1, 6] was 0.4%, the “solid form and particle morphology after storage” value ([1]; one month and three months at 25° C./60% RH, 40° C./75% RH, and 60° C.) was “remained unchanged” and the “degradation (chemical purity of solid sample) after storage” value ([1]; solid sample of about 40 mg, storage for one month) was “no significant degradation was observed”. For the same molecule, the “HPLC Purity (area %)” value ([1]; 25° C., 60% RH, 1 month) was 99.83 area %, the “HPLC Purity (area %)” value ([1]; 25° C., 60% RH, 3 months) was 99.80 area % and the “HPLC Purity (area %)” value ([1]; 40° C., 75% RH, 1 month) was 99.81 area %. The “HPLC Purity (area %)” value ([1]; 40° C., 75% RH, 3 months) was 99.79 area %, the “HPLC Purity (area %)” value ([1]; 60° C., sealed, 1 month) was 99.85 area % and the “HPLC Purity (area %)” value ([1]; 60° C., sealed, 3 months) was 99.74 area %. The “HPLC Purity (area %)” value ([1]; Initial) was 99.86 area %, the “HPLC purity, API (RRT 1.00)” value ([2]; 35° C., ACN/H2O (1:1, v/v), 0 h) was 99.58% and the “HPLC purity, API (RRT 1.00)” value ([2]; 35° C., ACN/H2O (1:1, v/v), 4 h) was 99.44%. For the same molecule, the “HPLC purity, API (RRT 1.00)” value ([2]; 35° C., ACN/H2O (1:1, v/v), 24 h) was 98.42%, the “HPLC purity, API (RRT 1.00)” value ([2]; 35° C., EtOH/H2O (1:1, v/v), 0 h) was 99.58% and the “HPLC purity, API (RRT 1.00)” value ([2]; 35° C., EtOH/H2O (1:1, v/v), 4 h) was 99.47%. For the same molecule, the “HPLC purity, API (RRT 1.00)” value ([2]; 35° C., EtOH/H2O (1:1, v/v), 24 h) was 99.11%, the “HPLC purity, API (RRT 1.00)” value ([2]; 35° C., IPA/H2O (1:2, v/v), 0 h) was 99.57% and the “HPLC purity, API (RRT 1.00)” value ([2]; 35° C., IPA/H2O (1:2, v/v), 4 h) was 99.35%. The “HPLC purity, API (RRT 1.00)” value ([2]; 35° C., IPA/H2O (1:2, v/v), 24 h) was 99.21%, the “HPLC purity, API (RRT 1.00)” value ([2]; 35° C., THF/H2O (1:1, v/v), 0 h) was 99.56% and the “HPLC purity, API (RRT 1.00)” value ([2]; 35° C., THF/H2O (1:1, v/v), 4 h) was 99.37%. The “HPLC purity, API (RRT 1.00)” value ([2]; 35° C., THF/H2O (1:1, v/v), 24 h) was 98.30%, the “chemical purity in solution” value ([2]; 35° C.) was “about 99.6%” and the “HPLC purity, API (RRT 1.00)” value ([2]; RT, ACN/H2O (1:1, v/v), 0 h) was 99.65%. For the same molecule, the “HPLC purity, API (RRT 1.00)” value ([2]; RT, ACN/H2O (1:1, v/v), 4 h) was 99.51%, the “HPLC purity, API (RRT 1.00)” value ([2]; RT, ACN/H2O (1:1, v/v), 24 h) was 99.24% and the “HPLC purity, API (RRT 1.00)” value ([2]; RT, EtOH/H2O (1:1, v/v), 0 h) was 99.58%. The “HPLC purity, API (RRT 1.00)” value ([2]; RT, EtOH/H2O (1:1, v/v), 4 h) was 99.47%, the “HPLC purity, API (RRT 1.00)” value ([2]; RT, EtOH/H2O (1:1, v/v), 24 h) was 99.11% and the “HPLC purity, API (RRT 1.00)” value ([2]; RT, IPA/H2O (1:2, v/v), 0 h) was 99.59%. The “HPLC purity, API (RRT 1.00)” value ([2]; RT, IPA/H2O (1:2, v/v), 4 h) was 99.52%, the “HPLC purity, API (RRT 1.00)” value ([2]; RT, IPA/H2O (1:2, v/v), 24 h) was 99.21% and the “HPLC purity, API (RRT 1.00)” value ([2]; RT, THF/H2O (1:1, v/v), 0 h) was 99.64%. For the same molecule, the “HPLC purity, API (RRT 1.00)” value ([2]; RT, THF/H2O (1:1, v/v), 4 h) was 99.47%, the “HPLC purity, API (RRT 1.00)” value ([2]; RT, THF/H2O (1:1, v/v), 24 h) was 99.19% and the “chemical purity in solution” value ([2]; room temperature) was “about 99.6%”. It also gave a solubility ([3]; simulated gastric fluid (SGF), simulated gastric fluid, read-out: solubility in simulated gastric fluid (SGF)) of over 114 mg/mL, a solubility ([3]; water with pH adjusted by NaOH and HCl, aqueous buffer, pH 7.08 (pH 5.13 after test), read-out: solubility in water solution with pH adjusted by NaOH and HCl) of 87.5 to 117 mg/mL (≈ 243 to 324 mM) and a solubility ([3]; water with pH adjusted by NaOH and HCl, aqueous buffer, pH 9.14 (pH 5.15 after test), read-out: solubility in water solution with pH adjusted by NaOH and HCl) of 83.5 to 111 mg/mL (≈ 232 to 309 mM). The “Final Form” value ([4]; 20° C.) was “Form A”, the “Final Form” value ([4]; 30° C.) was “Form A” and the “form change during solubility testing” value ([4]; XRPD, FIG. 9) was “No form change was observed”. The solubility at 6 h ([4]; 20° C.) was 125 mg/mL (≈ 347 mM), the solubility at 6 h ([4]; 30° C.) was 137 mg/mL (≈ 381 mM) and the hygroscopicity ([5]; DVS, up to 80% RH) was “slightly hygroscopic”. The “form change during DVS testing” value ([5]; XRPD before and after DVS, FIG. 11) was “No form change was observed” and the “mass change in DVS” value ([5]; up to 80% RH) was “about 0.66%”.
